Measured values from patent US5391489A, “Proteolytic enzymes from hyperthermophilic bacteria and processes for their production” (Johns Hopkins University, priority 1993, dated 1995).
Like-named read-outs stand apart in the source and are kept apart here.

Columns and labels:
[1] = tested on: purified SDS-resistant proteolytic enzyme preparation; experiment: Effect of denaturing agents on activity of the purified protease (standard azocasein assay); assay type: biochemical, Pyrococcus furiosus; settings: for percentage of original activity: standard assay conditions; for loss of proteolytic activity: 1 molar, at 98° C. for at least 30 minutes
Experimental: Several denaturing agents were added to azocasein, both in the presence and absence of the protease, to control of possible degradation of the substrate in the presence of the agents. […] Thus, high concentrations of urea and guanidinium chloride led to significant abiotic hydrolysis of azocasein such that results were difficult to interpret. The increases in relative activity above 100% are likely the result of the denaturing agents acting to make the azocasein substrate more susceptible to enzymatic hydrolysis.
(§1) Determination of proteolytic activity was based on the cleavage of azocasein (Cowan, D. A., et al., 1987, Biochem, J. 247:121-133). Assay mixtures contained 900 μl of 0.1% azocasein in 0.05M sodium phosphate buffer (pH 7.3 at 100° C.), and 100 μl of sample. The reaction was terminated by the addition of 500 μl of 15% (w/v) trichloracetic acid, and the cooled on ice for 5 min. The precipitate formed was removed by centrifugation at 12,000×g for 3 min in a microcentrifuge. Color release as a result of proteolytic activity was detected by measuring the absorbance of the supernatant at 440 nm. Linear response of the assay was obtained between 0.010 and 0.100 absorbance units. A unit of activity is defined as the amount of protein which produces a change of 0.100 absorbance units at 440 nm for a 30 min. incubation at a given temperature. Total protein was measured using the BioRad assay kit.
(§2) Purified samples of the SDS-resistant protease were obtained by incubation of the cell-free extract for 24 hours in the presence of 1% SDS at 98° C. Extracts treated in this way were then dialyzed against 5 mM sodium phosphate buffer, pH 7.5 at 4° C. overnight and concentrated in a Pharmacia Omegacell Stirred Cell (nominal molecular weight limit of 10 kDa) to a concentration of 2-3 mg/ml protein measured by the Bio-Rad protein assay kit.

[2] = tested on: purified SDS-resistant proteolytic enzyme preparation; experiment: Inhibitor studies on purified SDS-resistant proteolytic enzyme preparation; assay type: biochemical, Pyrococcus furiosus; settings: for inhibition: concentrations below 150 μM; for inhibition at point of complete saturation: reached at 400 μM
Experimental: FIG. 7. Effect of chelating inhibitors EDTA and EGTA on activity at 98° C. of purified SDS-resistant proteolytic enzyme preparation from Pyrococcus furiosus. Samples of purified enzyme preparation were assayed in the standard azocasein with the inhibitor concentrations indicated.
as §1, with “Linear response of the assay was obtained between 0.010 and 0.100 absorbance units.” left out
as §2

[3] = tested on: purified SDS-resistant proteolytic enzyme preparation; experiment: Effects of solvents on purified SDS-resistant proteolytic enzyme preparation; assay type: biochemical, Pyrococcus furiosus
Experimental: as §1, §2

[4] = Hydrolysis of synthetic substrate benzoyl DL-arginine p-nitroanilide; assay type: biochemical; settings: at 60° C.
Experimental: (§3) For tests on the substrate specificity of the purified SDS-resistant preparation, benzoyl-L-arginine ethyl ester, benzoyl-DL-arginine p-nitroanilide, serum thymic factor, angiotensin I, and trypsin were obtained from Sigma. Assays of benzoyl-L-arginine ethyl ester and benzoyl-arginine p-nitroanilide were performed as described previously (Schwert, G. W. et al., 1955, Biochem. Biophys. Acta 16:570-575; Erlanger, B. F., et al., 1961, Arch. Biochem. Biophys. 95:271-278) with a change in buffers to 50 mM sodium phosphate buffer, pH 7.5, and a substrate preincubation of two minutes at standard assay temperature.

[5] = Hydrolysis of synthetic substrate benzoyl-L-arginine ethyl ester; assay type: biochemical; settings: at 60° C.
Experimental: as §3

[6] = tested on: angiotensin I; experiment: Hydrolysis of peptide angiotensin I (reverse phase separation of products); assay type: biochemical; settings: after two hours at 40° C.
Experimental: FIG. 8. Comparison of hydrolysis products of angiotensin I polypeptide by trypsin and purified SDS-resistant proteolytic enzyme preparation ("Pyrolysin") showing similarity of cleavage except for one additional cleavage by the novel enzyme preparation.
A chromatogram of the cleavage products of angiotensin I after exposure to the purified P. furiosus protease and to trypsin is shown in FIG. 8.
Hydrolysis of peptides was conducted with a modification of a procedure described by Cowan et al., 1987, Biochem. J. 247:121-133). The peptides serum thymic factor and angiotensin I were incubated with the protease from P. furiosus for fifteen and sixty minutes at 98° C., and two hours with trypsin at 40° C. End products were separated by reverse phase chromatography on a Waters high-performance liquid chromatography system using a WISP auto injector and μ-Bondapak C18 with a linear gradient of acetonitrile and water, with 0.1% trifluoroacetic acid in both phases. Peaks from the reverse phase column were dried down in a Savant Speed-Vac and analyzed by Waters Pico-Tag amino acid analysis.

Molecule: OCCS [β-mecaptoethanol]
- percentage of original activity ([1]; 150 mM): 57%

Molecule: O=S(=O)(F)Cc1ccccc1 [phenyl methylsulfonyl fluoride]
- % inhibition ([2]; 10 mM inhibitor): 0%

Molecule: O=C(O)CI [iodoacetic acid]
- % inhibition [2]: 0%

Molecule: O=C(O)c1cc[c]([Hg][Cl])cc1 [p-chloromercuribenzoate]
- % inhibition ([2]; 10 mM inhibitor): 40%

Molecule: O[C@H](CS)[C@H](O)CS (racemic) [dithiothreitol]
- percentage of original activity ([1]; 10 mM): 39.5%

Molecule: NC(N)=O [urea]
- loss of proteolytic activity [1]: no loss of proteolytic activity
- percentage of original activity ([1]; 2M denaturant): 124%
- percentage of original activity ([1]; 4M denaturant): 138%

Molecule: O=C(O)CN(CCN(CC(=O)O)CC(=O)O)CC(=O)O [EDTA]
- % inhibition ([2]; 100 μM inhibitor): 7.8%
- % inhibition ([2]; 500 μM inhibitor): 51%
- % inhibition ([2]; 10 mM inhibitor): 49%
- inhibition [2]: no inhibition
- inhibition at point of complete saturation [2]: about 50%

Molecule: N=C(N)N [guanidinium chloride]
- percentage of original activity ([1]; 1M denaturant): 256%
- loss of proteolytic activity [1]: no loss of proteolytic activity
- percentage of original activity ([1]; 2M denaturant): 299%

Molecule: CC#N [Acetonitrile]
- % Activity ([3]; 20% (v/v) solvent): 77%
- % Activity ([3]; 50% (v/v) solvent): 71%
- % Activity ([3]; 70% (v/v) solvent): 39%

Molecule: CN(C)C=O [Dimethylformamide]
- % Activity ([3]; 10% (v/v) solvent): 80%
- % Activity ([3]; 50% (v/v) solvent): 13%
- % Activity ([3]; 100% solvent): 25%

Molecule: O=C(O)CN(CCOCCOCCN(CC(=O)O)CC(=O)O)CC(=O)O [EGTA, [Ethylenebis(oxyethylenenitrilo)]tetraacetic acid]
- % inhibition ([2]; 100 μM inhibitor): 7.8%
- % inhibition ([2]; 500 μM inhibitor): 51%
- % inhibition ([2]; 10 mM inhibitor): 49%
- inhibition [2]: no inhibition
- inhibition at point of complete saturation [2]: about 50%

B1: trypsin (protein, UniProt P00760 24-246, looked up)
Serine protease 1: IVGGYTCGANTVPYQVSLNSGYHFCGGSLINSQWVVSAAHCYKSGIQVRLGEDNINVVEGNEQFISASKSIVHPSYNSNTLNNDIMLIKLKSAASLNSRVASISLPTSCASAGTQCLISGWGNTKSSGTSYPDVLKCLKAPILSDSSCKSAYPGQITSNMFCAGYLEGGKDSCQGDSGGPVVCSGKLQGIVSWGSGCAQKNKPGVYTKVCNYVSWIKQTIASN
notes: comparison protease obtained from Sigma
- hydrolysis of substrate [4]: effective
- hydrolysis of substrate [5]: effective
- remaining uncleaved peptide [6]: still a portion of uncleaved angiotensin I
